“Also recorded” adds a separate entry of the source.
Tested on: H3K9me3(1–16) peptides
Experiment: bio-layer interferometry (BLI)
Format: binding
Details: 20 mM Hepes KOH pH 7.2, 70 mM KCl; GST fusion; association 120 s, dissociation 120 s; WT 28.0 μM, R38/9K 25.5 μM, R38/9A 28.3 μM and lower concentrations
Procedure: Recombinant mouse full-length HP1 wildtype and mutant proteins were expressed in (as GST fusion proteins), and purified from, Escherichia coli as described. Proteins were concentrated using Amicon Ultra centrifugation filters with a 30 kDa cutoff (Millipore), washed into binding buffer (20 mM Hepes KOH pH 7.2, 70 mM KCl, 1 mM DTT, 0.1% Tween-20, 5% glycerol). Protein concentrations were determined by Bradford protein assay against a BSA standard, and purity was verified by SDS-PAGE followed by Coomassie-blue staining. Real-time binding assays of GST-HP1γ were performed using the BLItz® system (ForteBio) in binding buffer (+ 0.1% BSA). Biotinylated H3(1–16) peptides (NH2-[…](me3)STGGKAP-Biotin) were immobilised to Dip and Read High Precision Streptavidin (SAX) Biosensors (ForteBio), and kinetics for a range of protein concentrations were measured under advanced kinetics settings (1. initial baseline measuring buffer only: 30 s, 2. loading of peptides onto sensors: 120 s, 3. effective baseline measurement: 30 s, 4. association of GST-HP1γ proteins: 120 s, 5. dissociation of GST-HP1γ proteins: 120 s). The data were normalised to the effective baseline signal by subtracting the average baseline value (150–180 s) from each data point (150–420 s). […] Raw data are summarised in Additional file 3: Table S1.

HP1γR38/9A: HP1γ with alanine substitutions at amino acids 38 and 39 to mimic citrullination
BLI binding, in words: begin to plateau at significantly lower amounts compared to the WT protein; also recorded: distinctly different kinetic behaviour compared to the WT protein

HP1γWT: full-length mouse HP1γ wild type, as GST or mEos3.2–HaloTag fusion protein
BLI binding, in words: binds exclusively to H3K9me3 peptides

— paper PMC6444592, “Citrullination of HP1γ chromodomain affects association with chromatin” (Epigenetics & Chromatin, 2019)
